Measured values as given in US20240140949A1, “ANTI-CANCER PHARMACEUTICAL COMPOSITION FOR TARGETING HEAT SHOCK PROTEIN 70, CONTAINING INDOLOQUINAZOLIDINE ALKALOID” (SEOUL NATIONAL UNIVERSITY R & DB FOUNDATION, priority 2021, published 2024).

Experiments:
[1] = system: cancer cells derived from various origins; assay: Cell viability (MTT or crystal violet assay) in cancer cell lines of various origins; assay type: cell-based, human; settings: various concentrations, 3 days, cancer cells of various origins (FIG. 2)
From the text: (§1) Human lung cancer cell lines (H1299, H460, A549, H226B, and PC9), breast cancer cell line (MDA-MB-231), liver cancer cell line (Hep3B), kidney cancer cell line (786-0), prostate cancer cell lines (DU145 and PC-3), and mouse lung cancer cell line (Lewis Lung Carcinoma, LLC) were purchased from ATCC (American Type Culture Collection) or obtained from Dr. John V. Heymach of MD Anderson Cancer Center, USA. The human head and neck cancer cell line (UMSCC38) was obtained from Dr. Jeffrey N. Myers (MD Anderson Cancer Center, USA). […]
The cancer cell lines were seeded in a 96-well plate at a density of 2×10^3 cells per well and cultured for 24 hours to allow the cells to attach. The cells were then treated with diluted drugs in media for 3 days and cell viability was assessed using MTT assay or crystal violet (CB) assay. For the MTT assay, MTT solution dissolved in PBS was added to achieve a final concentration of 500 μg/mL and incubated for 2-4 hours, after which the medium was removed and the formed formazan was dissolved in 100% DMSO, followed by measuring the absorbance at 570 nm. For the CB assay, the cultured cells were fixed with 100% methanol, stained with a 0.025% crystal violet solution, dissolved in 1% SDS solution, and the absorbance was measured at 570 nm. […]

[2] = system: cancer cell lines of various origins; assay: Anchorage-dependent colony formation in cancer cell lines of various origins; assay type: cell-based, human; settings: 50 nM, 2 weeks (FIG. 3)
From the text: as §1, with “USA). Human colon cancer cell lines (HCT116 and HT-29) and glioblastoma cell line (U87MG) were obtained from Professor Sang Kook Lee (Seoul National University College of Pharmacy). The human kidney cancer cell line (Caki-1), and gastric cancer cell line (SNU-638) were purchased from the Korean Cell Line Bank.” for “USA).”
Cancer cell lines were seeded in a 24-well or 6-well plate at 100-250 cells per well and allowed to attach, followed by treatment with drugs diluted in media and cultured for 2-3 weeks. Formed colonies were stained with crystal violet and counted. The drug's colony formation inhibitory effect was calculated as the percentage of colony number change in the drug-treated group compared to the vehicle (DMSO)-treated control group.

[3] = system: Hsp70 protein and Hsp70/Hsp90 client proteins (Akt, Src, and MEK); assay: Western blot of Hsp70 and client proteins in lung cancer cells; assay type: cell-based, human
From the text: Human lung cancer cell lines (H1299, H460, A549, H226B, and PC9), breast cancer cell line (MDA-MB-231), liver cancer cell line (Hep3B), kidney cancer cell line (786-0), prostate cancer cell lines (DU145 and PC-3), and mouse lung cancer cell line (Lewis Lung Carcinoma, LLC) were purchased from ATCC (American Type Culture Collection) or obtained from Dr. John V. Heymach of MD Anderson Cancer Center, USA. The human head and neck cancer cell line (UMSCC38) was obtained from Dr. Jeffrey N. Myers (MD Anderson Cancer Center, USA). Human colon cancer cell lines (HCT116 and HT-29) and glioblastoma cell line (U87MG) were obtained from Professor Sang Kook Lee (Seoul National University College of Pharmacy). The human kidney cancer cell line (Caki-1), and gastric cancer cell line (SNU-638) were purchased from the Korean Cell Line Bank. The chemotherapy-resistant cells [paclitaxel-resistant H460 cells (H460/PcR), paclitaxel-resistant H226B cells (H226B/PcR), cisplatin-resistant H1299 cells (H1299/CsR), pemetrexed-resistant H1299 cells (H1299/PmR)] and molecularly targeted anticancer therapy-resistant cells [erlotinib-resistant PC9 cells (PC9/ER)] were constructed by treating the respective anti-cancer drugs for more than three months. H1299, H460, H226B, PC9, Hep3B, 786-0, DU145, PC-3, HCT116, HT-29, SNU-638, chemotherapeutic resistant cells, and molecularly targeted anticancer therapy-resistant cells were cultured in RPMI 1640 media containing 10% fetal bovine serum (FBS) and antibiotics at 37° C. under 5% CO2 conditions, while MDA-MB-231, UMSCC38, U87MG, Caki-1 were cultured in DMEM media containing 10% FBS and antibiotics at 37° C. under 5% CO2 conditions. Cells were passaged 1-2 times per week.
The cells treated with the drug were treated with RIPA lysis buffer [50 mM Tris-HCl (pH 7.4), 150 mM NaCl, 1 mM EDTA, 0.25% sodium deoxycholate, 1% Triton X-100, 100 mM NaF, 5 mM Na3VO4, 1 mM PMSF, 1 μg/mL aprotinin, 1 μg/mL leupeptin, and 1 μg/mL pepstatin], followed by incubation on ice for 10 minutes and centrifugation at 13,000 rpm for 15 minutes to extract proteins. The proteins were quantified by BCA assay and equal amounts of proteins were separated by 8-10% SDS-PAGE. The separated proteins were transferred to a PVDF membrane, and the areas of the membrane not transferred with protein were blocked by incubating the membrane in 5% skim milk solution or 3% BSA solution diluted in TBST at room temperature for 1 hour. The membrane was then incubated in a primary antibody solution diluted 1:1,000 in 3% BSA at 4° C. for more than 12 hours. The primary antibody used was either anti-Hsp70 or anti-actin, with the anti-Hsp70 antibody obtained from Enzo Life Science and the actin antibody obtained from Santa Cruz Biotechnology. After incubation, the membrane was washed for 1 hour while changing TBST several times, and then incubated for 1 hour at room temperature with a secondary antibody (GeneTex) diluted 1:5,000 in 5% skim milk solution. After incubation, the membrane was washed for 1 hour while changing TBST several times, and then treated with an enhanced chemiluminescence (ECL) solution. The expression of Hsp70 or Actin protein was detected using LAS4000.

[4] = system: H460 xenograft tumors; assay: H460 xenograft tumor growth in NOD/SCID mice; assay type: in vivo, mouse; settings: 20 mg/kg orally six times a week, vs control group (FIG. 7)
Experimental: H460 cells (5×10^6 cells/spot) or lung cancer patient-derived tumors were implanted into the flank of 6-week-old NOD/SCID mice, or LLC-Luc cells (5×10^5 cells/spot) were implanted into the flank of 8-week-old C57BL/6 mice to form tumors. When the tumor volume reached 50-100 mm^3, the mice were divided into control and experimental groups (with at least 6 mice assigned to each group), and the control group was administered with vehicle (10% DMSO and 40% PEG400 solution prepared in sterile distilled water), while the experimental group was administered with EV507 (20 mg/kg) six times a week orally. The major and minor axes of the tumor were measured, and the tumor size was measured at least 3-4 times a week, and the body weight was measured at least once a week to evaluate the toxicity of the drug. Also, the survival of C57BL/6 mice implanted with LLC-Luc cells was monitored to determine the survival curve. The tumor volume was calculated as (width)^2× length×0.5.

[5] = system: lung cancer cells; assay: Anchorage-independent (soft agar) colony formation; assay type: cell-based; settings: soft agar (FIG. 20)
Experimental: Before the experiment, a 1% agar solution made with low-melting agar was placed in a 24-well plate and hardened at room temperature to create a bottom agar. The cells were diluted with medium to seed 2×10^3 cells per well in a 24-well plate. Then, it was mixed with a 1% agar solution to create a final 0.4% agar solution, which was then solidified at room temperature in the plate containing the bottom agar. Medium containing the drug was added on top of the cells mixed in the agar and cultured for 1-3 weeks at 37° C. in a 5% CO2 condition, after which the formed colonies were stained with an MTT solution of 250-500 μg/mL and counted. The colony formation inhibitory effect of the drug was calculated by expressing the change in colony numbers in the drug-treated group compared to the vehicle (DMSO) treated control group as a percentage.

For `C=CCN1c2ccccc2C(=O)N2CCc3c([nH]c4ccc(O)cc34)C21` (stereo not drawn) [EV507], the “anti-cancer survival inhibition efficacy” value [1] was “concentration-dependent anti-cancer survival inhibition efficacy”, the “formation of colonies under anchorage-dependent conditions” value [2] was “significantly inhibited” and the “expression of Hsp70 protein and Hsp70/Hsp90 client proteins (Akt, Src, and MEK)” value ([3]; H1299, H460, A549, H226B lung cancer cell lines (FIG. 4)) was “clear reduction”. The “expression of Hsp70 and Src and Akt (client proteins of Hsp70/Hsp90)” value ([3]; Western blot (FIG. 21)) was “decrease”, the tumor growth [4] was “significantly inhibited” and the anchorage-independent colony formation [5] was “effectively inhibited”.
